Data reported in US8829033B2, “N-benzylamide substituted derivatives of 2-(acylamido)acetic acid and 2-(acylamido)propionic acids: potent neurological agents” (The University of North Carolina at Chapel Hill, priority 2009, dated 2014).
Like-named read-outs stand apart in the source and are kept apart here.

Assays:
Mice [1] = test: Maximal electroshock seizure (MES) test, mice (ip);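 further: male albino CF No. 1 mice dosed ip, MES stimulus 50 mA at 60 Hz lasting 0.2 s, efficacy endpoint is loss of hind leg tonic extension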
Method: (§2) The maximal electroconvulsive shock (MES) test is regarded as a standard screen for anticonvulsant activity in terms of inhibition of seizure spread in generalized tonic-clonic seizures.
(§3) Groups of at least 8 male albino CF No. 1 mice or male albino Sprague-Dawley rats are treated with 10 mL/kg i.p. or 4 mL/kg p.o. of the test compound solution, respectively. The electrical stimulus in the MES test is 50 mA at 60 Hz for mice and 150 mA at 60 Hz for rats, both delivered for 0.2 sec. Abolition of the hind leg tonic extensor component of the seizure is used as the endpoint.

Rat [2] = test: Maximal electroshock seizure (MES) test, rat (po); type: in vivo; details: for ED50: read-out: Rat (po) MES, ED50
Method: as §2, §3

[3] = Neurological toxicity, rotorod test, mice (ip); type: in vivo; details: male, CF No 1, mouse, in vivo
Method: (§1) Tests are conducted in groups of at least 8 mice or rats to determine the intrinsic neurotoxicity (neuromuscular impairment) after administration of the test compound by the route of administration to be used in the pharmacology studies. Neurotoxicity is determined in male CF No 1 mice by the rotarod procedure. Inability of the mouse to maintain its equilibrium in 3 trials during 1 min on this rotating rod (6 rpm) is used as an indication of such impairment. In Sprague-Dawley rats, minimal motor impairment (MMI) is determined by overt evidence of ataxia, abnormal gait, and stance.

Rat [4] = test: Behavioral toxicity, rat (po); type: in vivo; details: behavioral toxicity
Method: as §1

Mice [5] = test: Neurological toxicity, rotorod test, mice (ip); type: in vivo; details: for Mice (ip) Tox, TD50: Table b500, rotorod test; for Mice (ip) Tox, Td50: rotorod test
Method: as §1

Mice [6] = test: Formalin test (mice, ip); type: in vivo; details: for Formalin Test (mice, ip) Inflammatory (%): duration of licking as percent of control, late phase; for Formalin Assay Acute (%) / Formalin Assay Inflam. (%): mice, ip
Method: Compounds of the present invention were active in treating pain in a formalin test carried out in accordance with standard techniques, as described in S. Hunskaar et al., J. Neurosci. Methods 14: 69-76 (1985). Briefly, 0.5% formalin is injected into the mouse hind paw to elicit a bi-phasic licking response, where the first acute phase is thought to correspond to the direct stimulation of peripheral fibers and the second (inflammatory) phase is caused by the release of inflammatory mediators.
Spinal/supraspinal plasticity of nociception is considered as a molecular basis for neuropathic pain particularly during the second (late) phase of the test (Dubuisson & Dennis, 1977; Coderre et al., 1990; Coderre & Melzack, 1992), during which most clinically used drugs against neuropathic pain are active.

Rats = test: Hippocampal kindling test, rats (ip); type: in vivo; details: for ED50: Rattus norvegicus, ip, read-out: Hippocampal Kindled Rats (ip) ED50 (interval)
Method: The kindling model provides a tool to predict a test compound's activity in complex partial seizures.
Male albino Sprague-Dawley rats (n=8) are kindled to a Stage 5 behavioral seizure. They are treated with an appropriate i.p. dose of the test compound after a 1-week, stimulus-free period. The test compound is evaluated for its effect on kindled motor seizures (seizures scores of 4 and 5), limbic behavior seizures (seizure scores between 1 and 3) and after-discharge duration. After 15 min, each rat is stimulated every 30 min for 3-4 h. Following each stimulation, individual seizure scores and after-discharge duration are recorded. The group mean and standard error of the mean (SEM) are calculated for each parameter.

Mice [7] = details: cited from earlier work
Rat [8] = details: cited from earlier work
Mice [9] = test: 6 Hz test, mice (ip); type: in vivo; details: Mus musculus, ip, intraperitoneally
[10] = Table b502, protective index (TD50/ED50)
[11] = rotorod test, read-out: Mice (ip) Tox, TD50
[12] = rotorod test, read-out: Mice (ip) Tox, Td50

CC(=O)N[C@@H](C(=O)NCc1ccc(OCc2cccc(F)c2)cc1)C(C)(C)C
melting point: 64 to 66 °C

CC(=O)NC(C(=O)NCc1ccccc1)c1ccccc1 (centres unmarked) [C, reference compound]
MES ED50 (Mice [1]; ip): 32 mg/kg

COCCCc1ccc(CNC(=O)[C@@H](COC)NC(C)=O)cc1
melting point: 105 to 107 °C

COC[C@@H](NC(C)=O)C(=O)NCc1ccc(OCc2ccc(F)cc2)cc1 [(R)-22, (R)—N-4-(4-Fluorobenzyloxy)benzyl 2-Acetamido-3-methoxypropionamide]
Rat (po) PI (Rat [2]; [10]): >86 | TD50 [3, 11]: 30 to 100 mg/kg | melting point: 166 to 167 °C | Mice (ip) MES, ED50 (Mice [1]; Table b502, intraperitoneally): >10, <30 [0.5] mg/kg

CC(=O)NCC(=O)NCc1ccc(OCc2cccc(F)c2)cc1 [compound 5, N-4-(3-Fluorobenzyloxy)benzyl 2-Acetamidoacetamide]
Rat (po) PI (Rat [2]; Table b500, protective index (TD50/ED50)): >16 | Rat (po) Tox, TD50 (Rat [4]; Table b500, orally): >500 [1.0] mg/kg

COC[C@@H](NC(C)=O)C(=O)NCc1ccc(OCCc2cccc(F)c2)cc1 [(R)-19, (R)—N-4′-((3″-Fluoro)phenethoxy)benzyl 2-N-Acetamido-3-methoxypropionamide]
TD50 [3, 12]: 30 to 100 mg/kg | melting point: 147 to 148 °C | Mice (ip) MES, ED50 (Mice [1]; Table b501, intraperitoneally): >30, <100 [0.5, 4.0] mg/kg

CC(=O)N[C@@H](C)C(=O)NCc1ccc(OCc2cccc(F)c2)cc1 [(S)-6, (S)—N-4-(3-Fluorobenzyloxy)benzyl 2-Acetamidopropionamide]
Mice (ip) Tox, TD50 (Mice [5]): >300 [0.5] mg/kg | Rat (po) Tox, TD50 (Rat [4]; Table b500, orally): >30 [0.25 to mg/kg | melting point: 153 to 154 °C

CCCC(CCC)C(=O)O [valproate]
Formalin Test (mice, ip) Inflammatory (%) (Mice [6]; dose 300 mg/kg): 67 (20) % | ED50 (Rats; rats): 214 mg/kg | Mice (ip) Mes, ED50 (Mice [7]; Ref 30, 16, 32): 270 [0.25] mg/kg | Mice (ip) PI (Mice [7]; Ref 32): 1.6 | Mice (ip) MES, ED50 (Mice [7]; reference drugs marked h): 270 [0.25] | Mice (ip) PI (Mice [7]; reference drugs marked h): 1.6 | Rat (po) MES, ED50 (Rat [8]; Ref 16, 32): 490 [0.5] mg/kg | Rat (po) PI (Rat [8]; Ref 32): 0.6 | Rat (po) MES, ED50 (Rat [8]; reference drugs marked h): 490 [0.5] | Rat (po) PI (Rat [8]; reference drugs marked h): 0.6

CC(=O)NC(C(=O)NCc1ccc(C)cc1)c1ccccc1 (centres unmarked) [D, reference compound]
MES ED50 (Mice [1]; ip): ~300 mg/kg

COC[C@H](NC(C)=O)C(=O)NCc1ccc(N=[N+]=[N-])cc1 [(S)-5, (S)—N-(4-Azidobenzyl)-2-acetamido-3-methoxypropanamide]
TD50 ([3]; read-out: Mice (ip) Tox, TD50): > 300 mg/kg | melting point: 149 to 150 °C

COC[C@@H](NC(C)=O)C(=O)NCc1ccc(OCc2ccccc2F)cc1 [(R)-21, (R)—N-4-(2-Fluorobenzyloxy)benzyl 2-Acetamido-3-methoxypropionamide]
Rat (po) PI (Rat [2]; [10]): >45 | TD50 [3, 11]: 37 mg/kg | melting point: 173 to 174 °C | Mice (ip) MES, ED50 (Mice [1]; Table b502, intraperitoneally): 6.7 [0.25] (4.8-9.1) mg/kg

COC[C@@H](NC(C)=O)C(=O)NCc1ccc([N+](=O)[O-])cc1 [F, reference compound]
MES ED50 (Mice [1]; ip): >100, <300 mg/kg

COC[C@@H](NC(C)=O)C(=O)NCc1ccccc1 [H, reference compound]
Formalin Assay Acute (%) (Mice [6]; dose 16 (mg)): 100% | Formalin Assay Inflam. (%) (Mice [6]; dose 16 (mg)): 44%

COC[C@@H](NC(C)=O)C(=O)NCc1ccc(/C=C/c2cccc(F)c2)cc1 [(R)-14, (2-R,E)-N-4-(3-Fluorostyryl)benzyl 2-Acetamido-3-methoxypropionamide]
ED50 (Mice [9]): < 30 mg/kg | TD50 [3, 12]: 100 to 300 mg/kg | melting point: 206 to 208 °C | Mice (ip) MES, ED50 (Mice [1]; Table b501, intraperitoneally): >30, <100 [0.5] mg/kg

COC[C@@H](NC(C)=O)C(=O)NCc1ccccc1 [(R)-B, (2R)-2-(acetylamino)-N-benzyl-3-methoxypropanamide, reference compound]
Formalin Test (mice, ip) Inflammatory (%) (Mice [6]; dose 5 mg/kg): 31 [<0.01] % | ED50 (Rats): 14 mg/kg

COC[C@H](NC(C)=O)C(=O)NCc1ccc(OCc2cccc(F)c2)cc1 [(S)-10, (S)-2-Acetamido-N-(4-(3-fluorobenzyloxy)benzyl)-3-methoxypropanamide]
Mice (ip) Tox, TD50 (Mice [5]): >300 mg/kg | Mice (ip) Mes, ED50 (Mice [1]; Table b500, intraperitoneally): >300 mg/kg

O=C1NC(=O)C(c2ccccc2)(c2ccccc2)N1 [phenytoin]
Formalin Test (mice, ip) Inflammatory (%) (Mice [6]; dose 6 mg/kg): 21 (5) % | ED50 (Rats; rats): 34 mg/kg | Preliminary Hippocampal Kindling Test (Rats) Seizure Score, Drug (Rats; rats, after drug (pre-drug score in neighbouring column)): 3 | Rat (po) MES, ED50 (Rat [8]; Ref 16, 32): 30 [4.0] mg/kg | Rat (po) PI (Rat [8]; Ref 32): >100 | Rat (po) MES, ED50 (Rat [8]; reference drugs marked h): 30 [4] | Rat (po) PI (Rat [8]; reference drugs marked h): >100

COC[C@@H](NC(C)=O)C(=O)NCc1ccc(OCc2ccccc2)cc1 [(R)-20, (R)—N-4′-(Benzyloxy)benzyl 2-N-Acetamido-3-methoxypropionamide]
ED50 (Rat [2]; Rattus norvegicus, Table b502, orally): 5.6 mg/kg | Rat (po) PI (Rat [2]; [10]): >45 | TD50 [3, 11]: 22 mg/kg | Rat (po) Tox, TD50 (Rat [4]; Table b502, orally): >250 [1.0] mg/kg | melting point: 149 °C | Mice (ip) MES, ED50 (Mice [1]; Table b502, intraperitoneally): 5.8 [0.25] (4.4-7.2) mg/kg | Mice (ip) PI (Mice [1]; Table b502, ip, protective index (TD50/ED50)): 3.8

COC[C@@H](NC(C)=O)C(=O)NCc1ccc(NCc2cccc(F)c2)cc1 [(R)-17, (R)—N-4-(3-Fluorobenzylamino)benzyl 2-Acetamido-3-methoxypropionamide]
TD50 [3, 12]: 30 to 100 mg/kg | melting point: 78 to 81 °C | Mice (ip) MES, ED50 (Mice [1]; Table b501, intraperitoneally): >10, <30 [0.5] mg/kg

COCc1ccc(CNC(=O)[C@@H](COC)NC(C)=O)cc1
melting point: 119 to 120 °C

COC[C@@H](NC(C)=O)C(=O)NCc1ccc(N=[N+]=[N-])cc1 [(R)-5, (R)—N-(4-Azidobenzyl)-2-acetamido-3-methoxypropanamide]
Rat (po) PI (Rat [2]; PI=TD50/ED50): >64 | Formalin Assay Acute (%) (Mice [6]; dose 8.0 (mg)): 59% | Formalin Assay Inflam. (%) (Mice [6]; dose 8.0 (mg)): 106% | melting point: 149 to 150 °C | Mice (ip) PI (Mice [1]; ip, PI=TD50/ED50): 5.5

COC[C@@H](NC(C)=O)C(=O)NCc1ccc(C#Cc2cccc(F)c2)cc1 [(R)-15, (R)—N-4-((3-Fluorophenyl)ethynyl)benzyl 2-Acetamido-3-methoxypropionamide]
ED50 (Rat [2]; orally): 1.4 mg/kg | TD50 [3, 12]: 100 to 300 mg/kg | melting point: 200 to 202 °C | Mice (ip) MES, ED50 (Mice [1]; Table b501, intraperitoneally): >30, <100 [1.0, 4.0] mg/kg

CC(=O)NC(C(=O)NCc1ccc(OCc2cccc(F)c2)cc1)c1ccccn1 (racemic) [(R, S)-9, N-4-(3-Fluorobenzyloxy)benzyl 2-Acetamido-2-(pyridin-2-yl)acetamide]
TD50 [3, 11]: 210 mg/kg | Rat (po) Tox, TD50 (Rat [4]; Table b500, orally): >30 [4] mg/kg | melting point: 154 to 155 °C

COC[C@H](NC(C)=O)C(=O)NCc1ccc(OCc2cccc(F)c2)cc1 [(S)-3, (S)-2-Acetamido-N-(4-(3-fluorobenzyloxy)benzyl)-3-methoxypropanamide]
Mice (ip) MES, ED50 (Mice [1]; ip): >300 [0.5]

CC(=O)N[C@H](C)C(=O)NCc1ccc(OCc2cccc(F)c2)cc1
melting point: 158 °C

COC[C@@H](NC(C)=O)C(=O)NCc1ccc(COCc2cccc(F)c2)cc1 [(R)-18, (R)—N-4-(((3-Fluoro)benzyloxy)methyl)benzyl 2-Acetamido-3-methoxypropionamide]
Mice (ip) Tox, Td50 (Mice [5]): >30, <100 [0.5] mg/kg | Mice (ip) MES, ED50 (Mice [1]; Table b501, intraperitoneally): >30, <100 [0.5] mg/kg

CCC1(c2ccccc2)C(=O)NC(=O)NC1=O [phenobarbital]
ED50 (Rats): 20 mg/kg

COC[C@@H](NC(C)=O)C(=O)NCc1ccc(CCc2cccc(F)c2)cc1 [(R)-13]
TD50 [3, 12]: 30 to 100 mg/kg | Rat (po) Tox, TD50 (Rat [4]; Table b501, orally): >30 [1] mg/kg | melting point: 134 to 136 °C | Mice (ip) MES, ED50 (Mice [1]; Table b501, intraperitoneally): >10, <30 [0.5] mg/kg

COC[C@@H](NC(C)=O)C(=O)NCc1ccc(COc2cccc(F)c2)cc1 [(R)-16, (R)—N-4-((3-Fluorophenoxy)methyl)benzyl 2-Acetamido-3-methoxypropionamide]
Rat (po) PI (Rat [2]; Table b501, protective index (TD50/ED50)): >21 | Mice (ip) Tox, Td50 (Mice [5]): 10 [0.25] mg/kg | Mice (ip) MES, ED50 (Mice [1]; Table b501, intraperitoneally): 5.9 [0.25] mg/kg | Mice (ip) PI (Mice [1]; Table b501, ip, protective index (TD50/ED50)): 1.8
